From patent US20250353873A1, “COMPOUNDS AND METHODS FOR MODULATING APOE EXPRESSION” (Ionis Pharmaceuticals, Inc., priority 2024, published 2025)
Where “and” joins values, the source holds several entries; their conditions need not be identical. Identical values can stand only once. Strand notation (5' to 3'): a small letter for the sugar, then the base; units joined by * are phosphorothioate-linked, units joined directly phosphodiester-linked; [ ] holds rarer units or linkages, { } end groups; capitals alone tell only the bases. [ms] = mesyl phosphoramidate linkage; e = 2'-O-(2-methoxyethyl) (MOE); k = constrained ethyl (cEt); [5mC] = 5-methylcytosine; d = 2'-deoxy (DNA)

Tests used:
[1] = test system: human APOE RNA; assay: Activity in APOE C57BL/6NTac-Apoeem7250 knock-in mice, single ICV bolus, 16 weeks (Example 12); format: in vivo; conditions: single ICV bolus 300 μg, 16 weeks post treatment, normalized to mouse Ppia
In short: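 A single 300 μg intracerebroventricular dose was given, with PBS-treated mice as reference; cortical and spinal cord tissue was taken 16 weeks later. RT-qPCR quantified human APOE RNA, Ppia-normalized, expressed relative to PBS animals (% control).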

[2] = test system: human APOE RNA; assay: Activity in APOE C57BL/6NTac-Apoeem7250 knock-in mice, single ICV bolus, 8 weeks (Example 11); format: in vivo; conditions: for reduction of human APOE RNA in the cortex: APOE knock-in mouse model, 8 weeks post administration, assay of Example 11; for APOE RNA (% control) Cortex / APOE RNA (% control) Spinal Cord: single ICV bolus 300 μg, 8 weeks post treatment, normalized to mouse Ppia
In short: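 Cortical and spinal cord human APOE RNA quantified by RT-qPCR 8 weeks after a single 300 μg ICV dose in knock-in mice, Ppia-normalized. Values are percent of levels in PBS-treated animals.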

[3] = test system: human APOE RNA; assay: Activity in APOE C57BL/6NTac-Apoeem7250 knock-in mice, single ICV bolus, 4 weeks (Example 10); format: in vivo; conditions: single ICV bolus 300 μg, 4 weeks post treatment, normalized to mouse Ppia
In short: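 Human APOE RNA, quantified by real-time RT-PCR with RTS3073 and normalized to mouse Ppia, was read in cortical brain and spinal cord 4 weeks post dosing. Dosing was a single ICV bolus of 300 μg per knock-in mouse; values are % of PBS-treated animals.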

[4] = test system: human APOE RNA; assay: Dose-dependent reduction of human APOE RNA in HepG2 cells, electroporation, 20,000 cells per well, average of GAPDH- and PPIA-normalized results (Example 4, Table 12); format: cell-based; conditions: HepG2, 20,000 cells per well; for IC50: approximately 24 hours
Method: HepG2 cells plated at a density of 20,000 cells per well were treated by electroporation with various concentrations of modified oligonucleotide as specified in the tables below. […] APOE RNA levels were measured using the human primer probe set RTS3073 (described herein above). APOE RNA levels were normalized to human GAPDH, and human PPIA. Human GAPDH was amplified using human primer probe set RTS104 (described herein above). Human PPIA was amplified using human primer probe set mk_cycloA_2nd (described herein above) The average of the GAPDH-normalized results and the PPIA-normalized results are presented in the table below as percent APOE RNA, relative to the amount of APOE RNA in untreated control cells (% UTC). The half maximal inhibitory concentration (IC50) of each modified oligonucleotide was calculated in GraphPad Prism 10 (GraphPad Software, San Diego, CA) and is also presented in the table below.

[5] = test system: human APOE RNA; assay: Dose-dependent inhibition of human APOE RNA in differentiated SH-SY5Y cells, free uptake, 5 days (Example 5); format: cell-based
In short: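 APOE RNA, measured by RTS3073 primer probe set and normalized to human PPIA, is reported as % of untreated control cells, with IC50 fitted. Cells were differentiated SH-SY5Y at 10,000/well, given modified oligonucleotide at several concentrations by free uptake for 5 days.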

[6] = test system: human APOE RNA; assay: Activity in APOE C57BL/6NTac-Apoeem7250 knock-in mice, single ICV bolus, 20 weeks (Example 13); format: in vivo; conditions: single ICV bolus 300 μg, 20 weeks post treatment, normalized to mouse Ppia
In short: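 Cortical and spinal cord RNA was assayed by real-time RT-PCR for human APOE, normalized to mouse Ppia and reported as percent of PBS controls. Tissue was taken twenty weeks after one 300 μg intracerebroventricular bolus in APOE knock-in mice, 4 per group.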

Substance: Aes^mCeoTeoTesGesGksTdsGdzAdzAdzTds^mCdsTdsTdsTdsAdzTksTksAesAe (eA*e[5mC]eTeT*eG*kG*dT*dG[ms]dA[ms]dA[ms]dT*d[5mC]*dT*dT*dT*dA[ms]kT*kT*eA*eA) [Compound No. 1757576]
- APOE RNA (% control) Cortex [1]: 45 % control
- APOE RNA (% control) Spinal Cord [1]: 14 % control
- reduction of human APOE RNA in the cortex [2]: 79%
- APOE RNA (% control) Cortex [2]: 29 % control and 21 % control
- APOE RNA (% control) Spinal Cord [2]: 15 % control and 10 % control
- APOE RNA (% control) Cortex [3]: 29 % control
- APOE RNA (% control) Spinal Cord [3]: 23 % control
- APOE RNA (% UTC) ([4]; 5 nM): 94 % UTC
- APOE RNA (% UTC) ([4]; 13 nM): 88 % UTC
- APOE RNA (% UTC) ([4]; 33 nM): 83 % UTC
- APOE RNA (% UTC) ([4]; 82 nM): 77 % UTC
- APOE RNA (% UTC) ([4]; 205 nM): 61 % UTC
- APOE RNA (% UTC) ([4]; 512 nM): 40 % UTC
- APOE RNA (% UTC) ([4]; 1,280 nM): 29 % UTC
- APOE RNA (% UTC) ([4]; 3,200 nM): 22 % UTC
- APOE RNA (% UTC) ([4]; 8,000 nM): 11 % UTC
- APOE RNA (% UTC) ([4]; 20,000 nM): 6 % UTC
- IC50 [4]: 0.37 µM
- APOE RNA (% UTC) ([5]; 5 nM, 5 days (Table 13)): 75 % UTC
- APOE RNA (% UTC) ([5]; 5 nM, 5 days (Table 14)): 68 % UTC
- APOE RNA (% UTC) ([5]; 13 nM, 5 days (Table 13)): 71 % UTC
- APOE RNA (% UTC) ([5]; 13 nM, 5 days (Table 14)): 51 % UTC
- APOE RNA (% UTC) ([5]; 33 nM, 5 days (Table 13)): 45 % UTC
- APOE RNA (% UTC) ([5]; 33 nM, 5 days (Table 14)): 44 % UTC
- APOE RNA (% UTC) ([5]; 82 nM, 5 days (Table 13)): 42 % UTC
- APOE RNA (% UTC) ([5]; 82 nM, 5 days (Table 14)): 35 % UTC
- APOE RNA (% UTC) ([5]; 205 nM, 5 days (Table 13)): 43 % UTC
- APOE RNA (% UTC) ([5]; 205 nM, 5 days (Table 14)): 32 % UTC
- APOE RNA (% UTC) ([5]; 512 nM, 5 days (Table 13)): 31 % UTC
- APOE RNA (% UTC) ([5]; 512 nM, 5 days (Table 14)): 32 % UTC
- APOE RNA (% UTC) ([5]; 1,280 nM, 5 days (Table 13)): 29 % UTC
- APOE RNA (% UTC) ([5]; 1,280 nM, 5 days (Table 14)): 27 % UTC
- APOE RNA (% UTC) ([5]; 3,200 nM, 5 days (Table 13)): 27 % UTC
- APOE RNA (% UTC) ([5]; 3,200 nM, 5 days (Table 14)): 23 % UTC
- APOE RNA (% UTC) ([5]; 8,000 nM, 5 days (Table 13)): 12 % UTC
- APOE RNA (% UTC) ([5]; 8,000 nM, 5 days (Table 14)): 17 % UTC
- APOE RNA (% UTC) ([5]; 20,000 nM, 5 days (Table 13)): 18 % UTC
- APOE RNA (% UTC) ([5]; 20,000 nM, 5 days (Table 14)): 6 % UTC
- IC50 ([5]; 5 days (Table 13)): 0.07 µM
- IC50 ([5]; 5 days (Table 14)): 0.02 µM
- APOE RNA (% control) Cortex [6]: 32 % control
- APOE RNA (% control) Spinal Cord [6]: 31 % control

Substance: ^mCksTksTksGdzGdzTdzGdzAdzAdzTds^mCdsTdsTdsTdsAdsTdsTksAksAdzAk (antisense k[5mC]*kT*kT*dG[ms]dG[ms]dT[ms]dG[ms]dA[ms]dA[ms]dT*d[5mC]*dT*dT*dT*dA*dT*kT*kA*dA[ms]kA) [Compound No. 1785602]
- APOE RNA (% control) Cortex [1]: 38 % control
- APOE RNA (% control) Spinal Cord [1]: 20 % control
- reduction of human APOE RNA in the cortex [2]: 73%
- APOE RNA (% control) Cortex [2]: 27 % control
- APOE RNA (% control) Spinal Cord [2]: 26 % control
- APOE RNA (% control) Cortex [3]: 34 % control
- APOE RNA (% control) Spinal Cord [3]: 33 % control
- APOE RNA (% UTC) ([4]; 5 nM): 97 % UTC
- APOE RNA (% UTC) ([4]; 13 nM): 91 % UTC
- APOE RNA (% UTC) ([4]; 33 nM): 85 % UTC
- APOE RNA (% UTC) ([4]; 82 nM): 70 % UTC
- APOE RNA (% UTC) ([4]; 205 nM): 56 % UTC
- APOE RNA (% UTC) ([4]; 512 nM): 36 % UTC
- APOE RNA (% UTC) ([4]; 1,280 nM): 33 % UTC
- APOE RNA (% UTC) ([4]; 3,200 nM): 8 % UTC
- APOE RNA (% UTC) ([4]; 8,000 nM): 21 % UTC
- APOE RNA (% UTC) ([4]; 20,000 nM): 3 % UTC
- IC50 [4]: 0.3 µM
- APOE RNA (% UTC) ([5]; 5 nM, 5 days (Table 13)): 74 % UTC
- APOE RNA (% UTC) ([5]; 5 nM, 5 days (Table 14)): 84 % UTC
- APOE RNA (% UTC) ([5]; 13 nM, 5 days (Table 13)): 60 % UTC
- APOE RNA (% UTC) ([5]; 13 nM, 5 days (Table 14)): 106 % UTC
- APOE RNA (% UTC) ([5]; 33 nM, 5 days (Table 13)): 64 % UTC
- APOE RNA (% UTC) ([5]; 33 nM, 5 days (Table 14)): 83 % UTC
- APOE RNA (% UTC) ([5]; 82 nM, 5 days (Table 13)): 49 % UTC
- APOE RNA (% UTC) ([5]; 82 nM, 5 days (Table 14)): 69 % UTC
- APOE RNA (% UTC) ([5]; 205 nM, 5 days (Table 13)): 40 % UTC
- APOE RNA (% UTC) ([5]; 205 nM, 5 days (Table 14)): 42 % UTC
- APOE RNA (% UTC) ([5]; 512 nM, 5 days (Table 13)): 30 % UTC
- APOE RNA (% UTC) ([5]; 512 nM, 5 days (Table 14)): 32 % UTC
- APOE RNA (% UTC) ([5]; 1,280 nM, 5 days (Table 13)): 36 % UTC
- APOE RNA (% UTC) ([5]; 1,280 nM, 5 days (Table 14)): 26 % UTC
- APOE RNA (% UTC) ([5]; 3,200 nM, 5 days (Table 13)): 32 % UTC
- APOE RNA (% UTC) ([5]; 3,200 nM, 5 days (Table 14)): 19 % UTC
- APOE RNA (% UTC) ([5]; 8,000 nM, 5 days (Table 13)): 15 % UTC
- APOE RNA (% UTC) ([5]; 8,000 nM, 5 days (Table 14)): 10 % UTC
- APOE RNA (% UTC) ([5]; 20,000 nM, 5 days (Table 13)): 6 % UTC
- APOE RNA (% UTC) ([5]; 20,000 nM, 5 days (Table 14)): 8 % UTC
- IC50 ([5]; 5 days (Table 13)): 0.09 µM
- IC50 ([5]; 5 days (Table 14)): 0.23 µM
- APOE RNA (% control) Cortex [6]: 53 % control
- APOE RNA (% control) Spinal Cord [6]: 28 % control
